Measured values from ChEMBL document CHEMBL3351889, “Identification of a novel 2-pyridyl-benzensulfonamide derivative, RQ-00203078, as a selective and orally active TRPM8 antagonist” (Bioorg Med Chem Lett, 2014).
Values after ≈ are worked out from the molar mass of the structure shown.

Tests used:
[1] = biological target: Transient receptor potential cation channel subfamily M member 8 (Homo sapiens, UniProt Q7Z2W7); assay: Antagonist activity at human TRPM8 expressed in HEK293 cells assessed as inhibition of menthol induced Ca2+ influx; assay type: cell-based
[2] = Intrinsic clearance in human liver microsomes; assay type: ADME; conditions: read-out: CLH
[3] = Equilibrium solubility of the compound; assay type: physicochemical
Rattus norvegicus = assay: Antiallodynic activity in icilin-induced wet-dog shake rat model compound administered po 1 hr prior to icilin challenge measured over 30 mins; assay type: functional
[4] = biological target: Transient receptor potential cation channel subfamily M member 8 (Rattus norvegicus, UniProt Q8R455); assay: Antagonist activity at rat TRPM8 assessed as inhibition of menthol induced Ca2+ influx by cell-based assay
[5] = Intrinsic clearance in rat liver microsomes; assay type: ADME; conditions: read-out: CLH
[6] = Fraction unbound in rat plasma; assay type: ADME, cell-free
[7] = biological target: Transient receptor potential cation channel subfamily A member 1 (Homo sapiens, UniProt O75762); assay: Antagonist activity at human TRPA1 expressed in HEK293 cells assessed as inhibition of AITC-induced Ca2+ influx; assay type: cell-based
[8] = biological target: Transient receptor potential cation channel subfamily A member 1 (Rattus norvegicus, UniProt Q6RI86); assay: Antagonist activity at rat TRPA1 expressed in HEK293 cells assessed as inhibition of AITC-induced Ca2+ influx; assay type: cell-based
[9] = biological target: Transient receptor potential cation channel subfamily V member 4 (Homo sapiens, UniProt Q9HBA0); assay: Antagonist activity at human TRPV4 expressed in HEK293 cells assessed as inhibition of hypotonic solution-induced Ca2+ influx; assay type: cell-based
[10] = biological target: Transient receptor potential cation channel subfamily V member 1 (Homo sapiens, UniProt Q8NER1); assay: Antagonist activity at human TRPV1 expressed in HEK293 cells assessed as inhibition of capsaicin-induced Ca2+ influx; assay type: cell-based
[11] = biological target: Transient receptor potential cation channel subfamily V member 1 (Rattus norvegicus, UniProt O35433); assay: Antagonist activity at rat TRPV1 expressed in HEK293 cells assessed as inhibition of capsaicin-induced Ca2+ influx; assay type: cell-based
[12] = Cmax in rat at 3 mg/kg, po; assay type: ADME, organism-based; set-up: dose 3 mg/kg, route oral; conditions: in vivo
[13] = Oral bioavailability in rat at 3 mg/kg; assay type: ADME, organism-based; conditions: in vivo

Transient receptor potential cation channel subfamily M member 8 (Homo sapiens, UniProt Q7Z2W7), sequence (Q7Z2W7 whole entry): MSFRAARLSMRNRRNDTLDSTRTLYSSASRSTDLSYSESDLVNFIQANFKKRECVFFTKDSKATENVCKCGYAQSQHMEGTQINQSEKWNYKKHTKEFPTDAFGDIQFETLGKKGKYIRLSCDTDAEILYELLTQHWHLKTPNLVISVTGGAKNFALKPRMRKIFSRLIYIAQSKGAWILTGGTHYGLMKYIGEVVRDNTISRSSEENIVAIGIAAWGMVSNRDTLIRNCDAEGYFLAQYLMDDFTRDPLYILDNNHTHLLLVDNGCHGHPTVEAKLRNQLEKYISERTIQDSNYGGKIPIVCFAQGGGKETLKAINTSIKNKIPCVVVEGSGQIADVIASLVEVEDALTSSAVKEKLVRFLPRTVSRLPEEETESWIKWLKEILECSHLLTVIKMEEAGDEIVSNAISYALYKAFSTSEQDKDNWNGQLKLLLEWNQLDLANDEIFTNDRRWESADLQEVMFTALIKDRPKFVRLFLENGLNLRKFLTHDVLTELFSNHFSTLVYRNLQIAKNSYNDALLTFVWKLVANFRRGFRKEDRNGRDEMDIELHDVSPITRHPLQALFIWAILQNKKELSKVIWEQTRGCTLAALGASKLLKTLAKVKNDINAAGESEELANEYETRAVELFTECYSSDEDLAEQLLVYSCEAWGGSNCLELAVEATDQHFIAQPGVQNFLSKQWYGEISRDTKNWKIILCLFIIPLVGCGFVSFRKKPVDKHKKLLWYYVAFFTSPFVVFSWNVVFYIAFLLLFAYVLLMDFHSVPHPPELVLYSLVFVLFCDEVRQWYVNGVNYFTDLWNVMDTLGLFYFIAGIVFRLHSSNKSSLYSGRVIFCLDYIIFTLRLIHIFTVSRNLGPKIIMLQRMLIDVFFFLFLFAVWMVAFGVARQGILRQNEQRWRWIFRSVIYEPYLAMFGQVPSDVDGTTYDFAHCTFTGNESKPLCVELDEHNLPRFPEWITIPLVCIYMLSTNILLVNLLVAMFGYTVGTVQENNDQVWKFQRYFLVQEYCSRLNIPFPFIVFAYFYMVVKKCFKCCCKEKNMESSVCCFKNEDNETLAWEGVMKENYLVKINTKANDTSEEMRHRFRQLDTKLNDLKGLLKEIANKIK
Transient receptor potential cation channel subfamily M member 8 (Rattus norvegicus, UniProt Q8R455), sequence (Q8R455 whole entry): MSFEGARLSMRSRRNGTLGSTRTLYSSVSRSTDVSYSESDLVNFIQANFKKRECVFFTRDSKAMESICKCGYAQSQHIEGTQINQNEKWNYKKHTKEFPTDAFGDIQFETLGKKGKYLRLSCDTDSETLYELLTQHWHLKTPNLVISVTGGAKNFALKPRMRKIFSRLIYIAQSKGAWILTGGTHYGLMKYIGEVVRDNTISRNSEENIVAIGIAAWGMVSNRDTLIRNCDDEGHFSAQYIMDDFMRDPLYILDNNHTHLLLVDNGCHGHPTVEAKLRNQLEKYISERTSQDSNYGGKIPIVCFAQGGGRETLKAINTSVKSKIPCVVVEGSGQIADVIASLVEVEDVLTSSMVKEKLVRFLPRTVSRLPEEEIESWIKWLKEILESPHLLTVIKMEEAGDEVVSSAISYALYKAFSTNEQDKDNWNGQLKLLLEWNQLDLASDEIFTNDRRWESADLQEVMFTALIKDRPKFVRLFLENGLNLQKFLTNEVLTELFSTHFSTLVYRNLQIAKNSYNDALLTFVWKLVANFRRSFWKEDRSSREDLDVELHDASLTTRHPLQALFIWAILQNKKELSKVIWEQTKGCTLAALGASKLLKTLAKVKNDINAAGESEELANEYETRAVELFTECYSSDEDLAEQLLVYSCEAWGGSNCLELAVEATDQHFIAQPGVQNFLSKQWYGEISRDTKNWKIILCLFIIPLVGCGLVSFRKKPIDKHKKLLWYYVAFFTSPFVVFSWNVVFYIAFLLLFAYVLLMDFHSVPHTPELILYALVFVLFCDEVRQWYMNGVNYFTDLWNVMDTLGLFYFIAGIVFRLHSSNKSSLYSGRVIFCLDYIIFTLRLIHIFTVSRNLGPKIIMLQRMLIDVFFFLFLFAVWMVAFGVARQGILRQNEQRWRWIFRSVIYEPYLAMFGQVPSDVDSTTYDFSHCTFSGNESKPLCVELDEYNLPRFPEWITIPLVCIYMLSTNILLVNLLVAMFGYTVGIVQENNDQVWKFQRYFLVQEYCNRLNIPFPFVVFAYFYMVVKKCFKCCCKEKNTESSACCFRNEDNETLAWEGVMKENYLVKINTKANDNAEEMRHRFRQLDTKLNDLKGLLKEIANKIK
Transient receptor potential cation channel subfamily V member 4, sequence (Q9HBA0 whole entry): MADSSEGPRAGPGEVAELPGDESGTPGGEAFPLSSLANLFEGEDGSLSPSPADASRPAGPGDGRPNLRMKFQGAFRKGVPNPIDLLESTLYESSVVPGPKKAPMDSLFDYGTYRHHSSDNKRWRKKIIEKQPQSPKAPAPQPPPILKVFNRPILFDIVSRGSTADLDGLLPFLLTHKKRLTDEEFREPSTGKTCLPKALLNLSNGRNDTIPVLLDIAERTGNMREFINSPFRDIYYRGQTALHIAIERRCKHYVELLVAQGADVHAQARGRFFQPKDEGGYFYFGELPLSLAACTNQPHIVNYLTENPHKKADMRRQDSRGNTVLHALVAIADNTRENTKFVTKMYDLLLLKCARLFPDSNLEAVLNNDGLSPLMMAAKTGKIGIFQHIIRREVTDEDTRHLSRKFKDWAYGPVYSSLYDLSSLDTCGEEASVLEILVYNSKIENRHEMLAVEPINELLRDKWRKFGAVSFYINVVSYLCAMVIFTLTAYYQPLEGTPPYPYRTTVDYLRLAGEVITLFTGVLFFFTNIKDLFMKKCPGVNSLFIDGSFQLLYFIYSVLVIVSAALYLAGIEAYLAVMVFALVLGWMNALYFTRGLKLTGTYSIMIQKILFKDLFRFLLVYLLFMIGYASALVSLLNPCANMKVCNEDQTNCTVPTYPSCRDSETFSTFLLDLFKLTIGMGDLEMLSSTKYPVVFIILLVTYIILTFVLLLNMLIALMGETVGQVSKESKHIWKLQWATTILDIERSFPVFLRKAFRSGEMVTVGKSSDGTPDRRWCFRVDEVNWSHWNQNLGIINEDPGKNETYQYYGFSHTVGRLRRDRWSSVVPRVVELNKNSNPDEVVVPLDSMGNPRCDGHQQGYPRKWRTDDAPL
Transient receptor potential cation channel subfamily V member 1 (Homo sapiens, UniProt Q8NER1), sequence (Q8NER1 whole entry, looked up): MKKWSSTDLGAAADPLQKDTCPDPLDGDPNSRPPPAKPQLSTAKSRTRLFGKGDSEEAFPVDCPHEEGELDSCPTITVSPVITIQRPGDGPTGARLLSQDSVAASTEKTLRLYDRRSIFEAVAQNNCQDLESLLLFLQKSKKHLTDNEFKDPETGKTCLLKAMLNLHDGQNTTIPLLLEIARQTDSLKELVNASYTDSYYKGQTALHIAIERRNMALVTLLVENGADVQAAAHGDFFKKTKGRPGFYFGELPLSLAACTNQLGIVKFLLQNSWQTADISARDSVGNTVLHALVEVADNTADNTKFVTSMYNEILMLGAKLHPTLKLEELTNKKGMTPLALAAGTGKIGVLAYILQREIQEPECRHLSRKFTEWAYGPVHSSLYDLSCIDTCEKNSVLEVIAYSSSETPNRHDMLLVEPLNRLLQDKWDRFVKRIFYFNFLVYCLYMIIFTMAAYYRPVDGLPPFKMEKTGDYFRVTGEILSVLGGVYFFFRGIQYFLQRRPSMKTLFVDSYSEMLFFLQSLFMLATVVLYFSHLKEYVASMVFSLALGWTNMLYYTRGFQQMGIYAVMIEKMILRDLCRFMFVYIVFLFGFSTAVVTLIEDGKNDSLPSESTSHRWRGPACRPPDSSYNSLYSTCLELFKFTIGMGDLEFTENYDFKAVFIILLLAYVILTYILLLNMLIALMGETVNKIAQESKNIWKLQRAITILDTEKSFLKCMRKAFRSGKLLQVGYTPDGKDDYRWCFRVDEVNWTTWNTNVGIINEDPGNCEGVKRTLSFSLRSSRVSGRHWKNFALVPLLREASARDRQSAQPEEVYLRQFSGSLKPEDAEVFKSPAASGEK
Transient receptor potential cation channel subfamily V member 1 (Rattus norvegicus, UniProt O35433), sequence (O35433 whole entry, looked up): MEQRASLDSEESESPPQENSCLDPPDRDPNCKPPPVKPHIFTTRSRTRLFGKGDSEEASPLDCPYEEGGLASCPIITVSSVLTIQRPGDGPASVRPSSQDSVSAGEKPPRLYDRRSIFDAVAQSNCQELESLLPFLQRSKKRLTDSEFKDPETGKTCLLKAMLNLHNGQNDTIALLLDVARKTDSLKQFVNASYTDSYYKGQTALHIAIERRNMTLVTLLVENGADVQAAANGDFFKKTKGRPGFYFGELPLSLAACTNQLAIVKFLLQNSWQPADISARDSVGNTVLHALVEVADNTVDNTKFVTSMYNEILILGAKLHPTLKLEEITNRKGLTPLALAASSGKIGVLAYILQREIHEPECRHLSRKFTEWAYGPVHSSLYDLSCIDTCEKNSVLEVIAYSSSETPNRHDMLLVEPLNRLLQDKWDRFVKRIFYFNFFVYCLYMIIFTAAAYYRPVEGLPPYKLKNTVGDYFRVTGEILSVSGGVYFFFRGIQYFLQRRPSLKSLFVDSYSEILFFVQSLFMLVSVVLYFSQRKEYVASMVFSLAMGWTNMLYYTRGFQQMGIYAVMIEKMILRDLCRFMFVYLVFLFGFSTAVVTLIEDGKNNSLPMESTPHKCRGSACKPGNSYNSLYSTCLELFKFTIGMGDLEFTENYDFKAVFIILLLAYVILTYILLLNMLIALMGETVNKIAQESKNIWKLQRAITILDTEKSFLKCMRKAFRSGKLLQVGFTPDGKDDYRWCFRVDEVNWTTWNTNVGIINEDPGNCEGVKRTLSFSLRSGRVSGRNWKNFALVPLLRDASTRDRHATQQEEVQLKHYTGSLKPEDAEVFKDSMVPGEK

Row | Compound | IC50 [1] [nM] | CLint scaled [2] [mL/min/kg] | further results
1 | O=C(O)c1ccc(S(=O)(=O)N(Cc2ccccc2)c2ncc(C(F)(F)F)cc2Cl)cc1 | 61 | < 7 | solubility thermodynamic [3]: 185 µM (≈ 87.1 µg/mL)
2 | O=S(=O)(c1ccc(CO)cc1)N(Cc1ccccc1)c1ncc(C(F)(F)F)cc1Cl | 42 | > 168 | solubility thermodynamic [3]: 35 µM (≈ 16 µg/mL)
3 | CN(C)C(=O)c1ccc(S(=O)(=O)N(Cc2ccccc2)c2ncc(C(F)(F)F)cc2Cl)cc1 | 67 | > 168 | solubility thermodynamic [3]: 37 µM (≈ 18.4 µg/mL)
4 | O=C(O)c1ccc(S(=O)(=O)N(Cc2ccccc2)c2ncccc2Cl)cc1 | 9860 |  | 
5 | Cc1cc(C(F)(F)F)cnc1N(Cc1ccccc1)S(=O)(=O)c1ccc(C(=O)O)cc1 | 736 |  | 
6 | N#Cc1cc(C(F)(F)F)cnc1N(Cc1ccccc1)S(=O)(=O)c1ccc(C(=O)O)cc1 | 2470 |  | 
7 | O=C(O)c1ccc(S(=O)(=O)N(CCc2ccccc2)c2ncc(C(F)(F)F)cc2Cl)cc1 | 762 |  | 
8 | O=C(O)c1ccc(S(=O)(=O)N(CCCc2ccccc2)c2ncc(C(F)(F)F)cc2Cl)cc1 | 49 | 81 | 
9 | O=C(O)c1ccc(S(=O)(=O)N(CCN2CCOCC2)c2ncc(C(F)(F)F)cc2Cl)cc1 | 3720 | < 7 | 
10 | O=C(O)c1ccc(S(=O)(=O)N(Cc2cccc(C(F)(F)F)c2)c2ncc(C(F)(F)F)cc2Cl)cc1 | 41 | < 7 | 
11 | O=C(O)c1ccc(S(=O)(=O)N(Cc2ccccc2OC(F)(F)F)c2ncc(C(F)(F)F)cc2Cl)cc1 | 96 | < 7 | 
12 | O=C(O)c1ccc(S(=O)(=O)N(Cc2ccc(OC(F)(F)F)cc2)c2ncc(C(F)(F)F)cc2Cl)cc1 | 8.3 | < 7 | ED50 (Rattus norvegicus): 0.65 mg/kg; IC50 [4]: 5.8 nM; CLint scaled [5]: < 10.4 mL/min/kg; fraction unbound [6]: 0.0031; IC50 [7]: > 10000 nM; IC50 [8]: > 10000 nM; IC50 [9]: > 3000 nM; IC50 [10]: > 10000 nM; IC50 [11]: > 3000 nM; Cmax [12]: 2300 ng/mL; bioavailability [13]: 86%
13 | O=C(O)c1ccc(S(=O)(=O)N(Cc2ccc(C(F)(F)F)cc2)c2ncc(Cl)cc2Cl)cc1 | 11 | < 7 | ED50 (Rattus norvegicus): 1.3 mg/kg; IC50 [4]: 9 nM; CLint scaled [5]: < 10.4 mL/min/kg; fraction unbound [6]: 0.011
14 | Cc1c(N(Cc2ccc(C(F)(F)F)c(F)c2)S(=O)(=O)c2ccc(C(=O)O)cc2)sc2ccccc12 | 6.2 | 8.5 | 
